From patent EP1067137B1, “Granules of alpha-L-aspartyl-L-phenylalnine methyl ester” (Ajinomoto Co., Inc., priority 1991, dated 1992)
Peptide text beside a SMILES is read from it.

Assays:
[1] = Dissolution time of α-APM granules in water; format: physicochemical; details: 8 g of sample in 2 liters of water, 20 °C, 350 rpm
Protocol: The dissolution time of the α-APM granules thus obtained was measured by the method mentioned below, and the results obtained are shown in Table 1.
First, 2 liters of water were previously put in a 3-liter beaker and stirred with a magnetic stirrer.
The size of the stirrer to be used for the stirring was 70 mm x 15 mm φ and the rotation number was set to be 350 rpm with Whatman Dataplate 440. The temperature of the water was kept to be 20 ° C by the use of a hot plate. 8 g of a sample was put into the water under the determined condition, whereupon the time needed for completely dissolving it in the water was measured to be the dissolution time of the sample.

[2] = relative to sucrose (cane sugar); cited from earlier work
[3] = Original Powder before Granulation
[4] = granules, Grain Size 100 to 150 µm
[5] = granules, Grain Size 150 to 180 µm
[6] = granules, Grain Size 180 to 300 µm
[7] = granules, Grain Size 300 to 500 µm
[8] = granules, Grain Size 500 to 850 µm
[9] = granules, Grain Size 850 to 1400 µm

Row | Compound | Dissolution Time [1, 3] | Dissolution Time [1, 4] | Dissolution Time [1, 5] | Dissolution Time [1, 6] | Dissolution Time [1, 7] | Dissolution Time [1, 8] | Dissolution Time [1, 9] | sweetness [2]
1 | COC(=O)[C@H](Cc1ccccc1)NC(=O)[C@@H](N)CC(=O)O [sample B, α-L-aspartyl-L-phenylalanine methyl ester] (H-Asp-Phe-OMe) | 15 min | 10 min | 7 min | 9 min | 17 min | 24 min | 35 min | 
2 | COC(=O)[C@H](Cc1ccccc1)NC(=O)[C@@H](N)CC(=O)O [sample A, α-L-aspartyl-L-phenylalanine methyl ester] (H-Asp-Phe-OMe) | 30 min | 15 min | 8 min | 11 min | 18 min | 25 min | 38 min | 
3 | COC(=O)[C@H](Cc1ccccc1)NC(=O)[C@@H](N)CC(=O)O [α-APM, α-L-aspartyl-L-phenylalanine methyl ester] (H-Asp-Phe-OMe) |  |  |  |  |  |  |  | about 200 times that of sucrose
4 | COC(=O)[C@H](Cc1ccccc1)NC(=O)[C@@H](N)CC(=O)O [sample C, α-L-aspartyl-L-phenylalanine methyl ester] (H-Asp-Phe-OMe) | 60 min | 36 min | 20 min | 12 min | 19 min | 27 min | 38 min | 
